# Patent US20110098180A1, “Herbicide-Resistant Plants, And Polynucleotides And Methods For Providing Same” (United States Department of Agriculture, priority 2002, published 2011)
# Key:
# Test in all cases: Cross-resistance testing, His-tagged column-purified PDS (Table 2A)
# [1] = test system: hydrilla PDS Arg^304 → Histidine, His-tagged; format: biochemical, Hydrilla verticillata; details: Histidine at 304 relative to Arginine; Table 2A
# Source text: (§1) In further cross-resistance testing similar to that described above, an alternative production and purification protocol was used in the preparation of the mutant PDS proteins, and the activity of the proteins was again tested using the same testing protocol. The alternative approach utilized His-tagging and column purification of the mutant PDS protins. The results are shown in. Table 2A below.
# (§2) The plasmid pHy4ATG5 was made by cloning the Phytoene Desaturase (pds) gene from Hydrilla verticillata, including 323 by upstream of the beginning of the putative mature protein, into the vector TOPO4 (Invitrogen, Carlsbad, Calif.): The 1-323 by region contained three potential start codons (ATG)(positions 1, 114 and 225 bp) in frame with pds. In order to express pds in bacteria, deletion clones were made for each of the three potential start codons with and without ATG. Only the results for possible origins of translation 1 and 225 by (named ORF and 3ORF) are reported here. pds was PCR amplified and subcloned into TOPO4 using pHy4ATG5 as template and the reverse primer RPDS—1849 (5′[…] 3′). The forward primers used were ORF (5′ […] 3′), ORF-ATG (5′ […] 3′), 3_ORF (5′[…] 3′) and 3_ORF-ATG (5′ […] 3′). The resulting plasmids were named pORF, pORF-ATG (minus ATG codon), p3ORF and p3ORF-ATG. The pds-containing EcoRI-fragments of these plasmids were subcloned into the EcoRI site of pRSETb vector (Invitrogen) for Histidine tagging and bacterial expression. The resulting constructs were pHy4SET, pHy4SET-ATG (minus ATG), p3ORFSET and p3ORFSET-ATG.
# (§3) Plasmid p3ORF-ATG was later mutagenized at the amino acid 304 of pds to replace the amino acid Arginine (Arg) by Histidine (His), Threonine (Thr), Serine (Ser), or Cysteine (Cys), using the QuickChange™ Site-Directed Mutagenesis Kit of Stratagene (La Jolla, Calif.). Primers used to replace Arg by His were Hyd-His-For (5′[…] 3′) and Hyd-His-Rev (5′ […] 3′); to replace Arg by Thr we used primers Hyd-Thr-For (5′[…] 3′) and Hyd-Thr-Rev (5′[…] 3′); to replace Arg by Ser we used Hyd-Ser-For (5′[…] 3′) and Hyd-Ser-Rev (5′[…] 3′); and Arg was replaced by Cys using Hyd-Cys-For (5′[…] 3′) and Hyd-Cys-Rev (5′[…] 3′). Resulting plasmids were named: p3ORFHisSet-ATG, p3ORFThrSet-ATG, p3ORFSerSet-ATG and p3ORFCysSet-ATG.
# (§4) All pRSET derived constructs were transformed into BL21(DE3)pLysS cells (Invitrogen), induced with IPTG for protein expression, and the His tag overproduced proteins analyzed by Western blot using Anti-HisG antibody (Invitrogen, cat. #R940-25).
# (§5) When working with His-tagged PDS proteins expressed as described in Example 4, the purified protein used for testing was prepared as follows. BL21(DE3)pLysS cells were grown overnight in 500 ml Luria Broth (LB) supplemented with carbenicillin (100 mg/l) and cloramphenicol (60 mg/l) at 37° C., and induced with 0.3 mM isopropylthio-β-D-galactoside (IPTG) for 3 hrs. Cells were lysed using a French press (Spectronics Instrument) at 20,000 psi and overexpressed PDS was purified on a nickel activated Hitrap Chelating HP column according to the manufacturers instructions (Amersham Bioscience).
# (§6) Generally, PDS protein fractions prepared as described above (Non-His-tagged and His-tagged) were mixed with a soluble fraction from phytoene-producing E. coli cells. For the phytoene producing cells, a plasmid construct containing the genes GGPP synthase and phytoene synthase from Erwinia uredovora, transformed into the appropriate E. coli strain, was used (see, Misawa et al., J. of Bacteriology 177:6575, 1995). This E. coli strain was separately cultured and lysed, and its soluble components collected (“the EB extract”) in a fashion similar to that described above for the PDS-producing cells.
# (§7) His-tagged, purified proteins prepared as described above were transferred to the assay buffer on a PD10 column (Amersham Bioscience) and the concentration was adjusted to 100 μg/mL. […]
# [2] = test system: hydrilla PDS Arg^304 → Serine, His-tagged; format: biochemical, Hydrilla verticillata; details: Serine at 304 relative to Arginine; Table 2A
# Source text: as §1, §2, §3, §4, §5, §6, §7
# [3] = biological target: hydrilla PDS Arg^304 → Cysteine, His-tagged (Hydrilla verticillata, UniProt Q66PY0, R304C); format: biochemical; details: Cysteine at 304; His-tagged, column-purified PDS; read-out: I50
# hydrilla PDS Arg^304 → Cysteine, His-tagged (Hydrilla verticillata, UniProt Q66PY0, R304C), sequence (Q66PY0 77-580 R304C): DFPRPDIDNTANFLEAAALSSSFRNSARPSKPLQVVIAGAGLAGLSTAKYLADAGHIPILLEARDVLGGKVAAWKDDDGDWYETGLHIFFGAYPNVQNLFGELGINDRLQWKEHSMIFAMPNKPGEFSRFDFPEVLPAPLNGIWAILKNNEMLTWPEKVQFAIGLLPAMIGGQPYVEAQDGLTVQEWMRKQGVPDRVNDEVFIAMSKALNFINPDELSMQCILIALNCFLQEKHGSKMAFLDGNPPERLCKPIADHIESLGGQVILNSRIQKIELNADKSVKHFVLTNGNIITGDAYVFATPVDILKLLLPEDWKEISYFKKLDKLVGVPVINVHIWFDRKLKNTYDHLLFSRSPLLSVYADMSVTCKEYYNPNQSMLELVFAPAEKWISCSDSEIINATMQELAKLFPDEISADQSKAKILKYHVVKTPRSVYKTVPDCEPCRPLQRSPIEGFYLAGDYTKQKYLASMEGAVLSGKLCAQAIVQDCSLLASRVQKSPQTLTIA
# Source text: as §1, §2, §3, §4, §5, §6, §7
# [4] = biological target: hydrilla PDS Arg^304 → Histidine, His-tagged (Hydrilla verticillata, UniProt Q66PY0, R304H); format: biochemical; details: Histidine at 304; His-tagged, column-purified PDS; read-out: I50
# hydrilla PDS Arg^304 → Histidine, His-tagged (Hydrilla verticillata, UniProt Q66PY0, R304H), sequence (Q66PY0 77-580 R304H): as the sequence (Q66PY0 77-580 R304C) above, with C228H counted along it
# Source text: as §1, §2, §3, §4, §5, §6, §7
# [5] = biological target: hydrilla PDS Arg^304 → Serine, His-tagged (Hydrilla verticillata, UniProt Q66PY0, R304S); format: biochemical; details: Serine at 304; His-tagged, column-purified PDS; read-out: I50
# hydrilla PDS Arg^304 → Serine, His-tagged (Hydrilla verticillata, UniProt Q66PY0, R304S), sequence (Q66PY0 77-580 R304S): as the sequence (Q66PY0 77-580 R304C) above, with C228S counted along it
# Source text: as §1, §2, §3, §4, §5, §6, §7
# [6] = test system: hydrilla PDS Arg^304 → Cysteine, His-tagged; format: biochemical, Hydrilla verticillata; details: Cysteine at 304 relative to Arginine; Table 2A
# Source text: as §1, §2, §3, §4, §5, §6, §7
Molecule,R/S [1],R/S [2],IC50 [3] [µM],IC50 [4] [µM],IC50 [5] [µM],R/S [6]
CNc1cnn(-c2cccc(C(F)(F)F)c2)c(=O)c1Cl [Norflurazon],9.7,82.0,1870,486,4100,37.0
CNC1=C(c2cccc(C(F)(F)F)c2)C(=O)C(c2ccccc2)O1 (stereo not drawn) [Flurtamone],2.1,2.4,1150,630,707,3.8
CCC(Oc1ccc(F)c(C(F)(F)F)c1)C(=O)NCc1ccccc1 (stereo not drawn) [Beflubutamid],1.75,6.5,232,126,465,3.2
"O=C(Nc1ccc(F)cc1)c1cccc(Oc2cccc(C(F)(F)F)c2)n1 [Piconilafen, Picolinafen]",0.3,0.2,96,112,62,0.3
O=C1C(Cl)C(CCl)CN1c1cccc(C(F)(F)F)c1 (stereo not drawn) [Fluorochloridone],2.8,4.0,283,364,518,2.2
O=C(Nc1ccc(F)cc1F)c1cccnc1Oc1cccc(C(F)(F)F)c1 [Diflufenican],1.0,2.2,241,103,223,2.4
Fluridone,4.8,2.0,,,,2.6
